Reference: PMC5011932, “Comparative pharmacokinetics and pharmacodynamics of intravenous artelinate versus artesunate in uncomplicated Plasmodium coatneyi-infected rhesus monkey model” (Malaria Journal, 2016)
Values joined by “and” are separate entries in the source; they are usually repeats but may differ in a detail not shown here. Equal entries are not always repeated. Where two headings read alike, the source gives them in different places.

Tests used:
Plasmodium coatneyi = assay: In vivo pharmacodynamics (parasite clearance) in uncomplicated P. coatneyi-infected splenectomized rhesus monkey model
Description: Twenty-two adult colony-born, Indian-origin rhesus macaques (Macaca mulatta) naïve monkeys were splenectomized and recovered well more than 1 month prior to entering the study. […] Twenty-two animals were randomized to two experiments of 11 monkeys. […] The control monkeys received intramuscular quinine treatment and the experimental animals received intravenous artemisinin candidates.
Based on our previous model validation, blood smears were performed to detect malaria parasites starting prior to inoculation on day 0 and continued daily (0700–0800 h). The monkeys were physically restrained in the squeeze cage restraint apparatus and approximately 0.1–0.2 ml whole blood was collected from each monkey by lancet puncture of the lateral auricular vein. Thick and thin smears were made on the same microscope glass slide and subsequently fixed in methanol and stained with Giemsa. When the smears were positive, white blood cell count (WBC) and/or red blood cell count (RBC) were also performed using automated haematology analyzer Sysmex K800 to calculate parasite density. Haematocrits were checked as needed. At study days 6–12, additional blood samples were obtained from all animals in the afternoon (1500–1600 h) to monitor parasitaemia levels. Daily blood smears were continued until two consecutive days with negative smears. Then the smear monitoring schedule was reduced to two times weekly for 2 weeks and then weekly for 6 weeks after completion of the last treatment.
Blood smear staining and parasitaemia determination took about 2 h. […] The control monkey received quinine treatment and the ten experimental animals received intravenous artemisinin derivative candidate.
After a week wash-out and recovery period, P. coatneyi (1 mL of >50,000 parasitized RBCs per microlitre or 5 × 10^6 RBC with a 1 % parasitaemia) were inoculated from a donor monkey into all the monkeys. The treatment was initiated at day 6 after inoculation at a parasitaemia ≥3 % or >200,000 parasites μL^−1 when the cohort of animals was minimally symptomatic. Drugs were given for 3 days with a loading dose initially followed by ½ of the first dose on the 2nd and 3rd days.
Blood smear were collected once daily in the morning. Once positive parasitaemia was observed and reached 2000 parasites μL^−1, blood smears were collected twice, in the morning and afternoon. Blood for slides preparation were collected from ear for thick and thin smear preparation. Blood films on glass slides were air dried, fixed with 100 % methanol, stained with Giemsa, and read under ×100 magnification oil emersion for parasite determination.
First, a thick smear was performed for parasite detection by reading the slides at least 50 fields under ×100 magnification oil emersion.

P. falciparum clone (W2) = assay: Ex vivo Plasmodium falciparum-based bioassay (BA) of rhesus plasma, effect kinetics (ePD) as DHA equivalents; assay type: cell-based; conditions: for Bioactivity %AUC20 / Bioactivity Cl: mean
Description: Blood was collected for pharmacokinetic/pharmacodynamics (PK/PD) analysis after the first dose only due to rapid clearance of artemisinin derivatives. Heparinized blood was collected at 0, 5, 20, 40 min, 1, 3, and 6 h post-dose and plasma samples were separated within 2 h by centrifugation (1500g, 10 min). Aliquots of samples were made for simultaneous measurement by HPLC [16] and bioassay [14], and stored at −80 °C until analysis.
The plasma anti-malarial activities of the artemisinin derivatives were measured using a previously published method [14]. […] After centrifugation, the supernatant (100 µL) was transferred to a 96-well flat bottom plate. Twofold serial dilutions were then made using heat inactivated pooled control serum (human:rhesus = 1:1). A suspension of malaria (W2 clone) infected erythrocytes was added to each well. The microtitre plate was placed into a gas-tight plexiglass chamber, flushed with a gas mixture of 90 % CO2, 5 % O2, and 5 % N2, and placed into an incubator (37 °C). Following 24 h incubation, the plate was removed from the chamber and pulsed with [^3H]-hypoxanthine solution to each well and incubated for another 18–20 h before harvesting. The incorporation of [^3H]-hypoxanthine by the parasites in each well was determined by counting in a scintillation counter.
A dose–response curve for each plasma sample was constructed by plotting [^3H]-hypoxanthine uptake on the Y-axis against the corresponding dilution factor on the X-axis after logarithmic transformation. The dilution factor value that inhibits parasite growth by 50 % (DF50) of each plasma sample was determined.

[1] = Deaths and tolerability in P. coatneyi-infected rhesus monkeys; assay type: in vivo, rhesus macaques (Macaca mulatta); conditions: for Deaths: infected rhesus, IV AL 11.8 mg kg^−1
[2] = parameters: method as in PMID 16860356, PMID 16126619; conditions: rats; cited from earlier work
[3] = Plasma pharmacokinetics by HPLC-ECD after IV dose in rhesus monkeys; conditions: for concentration at 0.08 h / concentration at 0.33 h / concentration at 0.67 h / concentration at 1 h / concentration at 3 h / concentration at 6 h: intravenous, 8 mg kg^-1, Plasma concentration; for AUC(0-t): AUC 0-20, mean; for half-life: t 1/2, z
Description: (§1) These doses were chosen as the minimal effective doses (from previous model development and validation studies, unpublished data) and blood was collected for pharmacokinetic analysis. After a week wash-out and recovery period, P. coatneyi (1 mL of >50,000 parasitized RBCs per microlitre or 5 × 10^6 RBC with a 1 % parasitaemia) were inoculated from a donor monkey into all the monkeys. The treatment was initiated at day 6 after inoculation at a parasitaemia ≥3 % or >200,000 parasites μL^−1 when the cohort of animals was minimally symptomatic. Drugs were given for 3 days with a loading dose initially followed by ½ of the first dose on the 2nd and 3rd days.
(§2) Blood was collected for pharmacokinetic/pharmacodynamics (PK/PD) analysis after the first dose only due to rapid clearance of artemisinin derivatives. Heparinized blood was collected at 0, 5, 20, 40 min, 1, 3, and 6 h post-dose and plasma samples were separated within 2 h by centrifugation (1500g, 10 min). Aliquots of samples were made for simultaneous measurement by HPLC [16] and bioassay [14], and stored at −80 °C until analysis. All glassware was silanized before use with a 0.5 % aqueous solution (v/v) of Pierce Aquasil (Rockford, IL, USA) according to the manufacturer’s recommended procedure. Solid-phase extraction was performed on C-18 elution cartridge (3.0 ml, J.T. Baker Co.) using a VAC ELUTE SPS24 sample processing station (Analytichem International, Harbour City, CA, USA). The cartridge was preconditioned by sequential washing with 2.5 ml acetonitrile, 2.5 ml methanol and 2.5 ml water. One ml of distilled water was added to the cartridge before adding plasma sample (0.5 ml). Then, the cartridge was washed with 2.5 ml distilled water, 2.5 ml of 0.05 % H3PO4 (pH 4.5) and 2.5 ml of 20 % acetonitrile and completely dried by closing the vacuum for 15 min. The analytes were collected by eluting with 0.5 ml methanol three times and then with 0.5 ml 90:10 n-butyl chloride: ethyl acetate twice. The organic phases were pooled. The combined organic phases were then evaporated to dryness under a stream of nitrogen at room temperature. Extraction residues were reconstituted with 50:50 ethanol: water (0.3 ml), at least 16 h before injection. The injection volume was 100 µl for all samples.
(§3) The plasma concentration of parent drugs, AL and AS, and their primary metabolites, DHA and 2-hydroxyartelinate (OHAL) respectively, were measured by HPLC with electrochemical detection in reductive mode (HPLC-ECD) [16], which was the only method for artemisinin compounds then (Additional files 1 and 2).
(§4) HPLC with reductive electrochemical detection was performed using a model BAS 200B liquid chromatography (Bioanalytical Systems, Inc., West Lafayette, Indiana, USA). A Nova-Pak® C18 (3.9 × 150 mm, Waters Corporation, Milford, MA, USA) was used with 40 % acetonitrile in sodium acetate buffer (pH 3.6) as mobile phase. Detection was performed using a thin dual-layer glassy carbon electrode run in parallel mode at a potential of −1.0 V versus Ag/AgCl. The system was operated at the following temperatures: mobile phase 35 °C, column and detector oven 30 °C, cell 31 °C with the flow rate of 1.5 mL min^−1. Artemisinin (ART) was used as an internal standard. Samples were injected via Gilson model 231 XL sampling injector equipped with a 100 µL loop, a Gilson model 401 dilutor/pipettor, a sampler controller keypad (Gilson Medical Electronics, Middleton, WI, USA), and a Valco electrically actuated switching valve (Valco Instrument Co. Inc) was used. This system automatically deoxygenated and injected sample, which permits the high sample throughput associated with automated injection. Data were acquired and analysed using a Millennium^32 Chromatography Manager (Waters Corporation, Milford, MA, USA).

[4] = rhesus monkey, in vivo
Description: as §1, §2, §3, §4

[5] = DHA equivalents, infected rhesus

CC1CCC2C(C)C(OCc3ccc(C(=O)O)cc3)OC3OC4(C)CCC1C32OO4.CC1CCC2C(C)C(OCc3ccc(C(=O)O)cc3)OC3OC4(C)CCC1C32OO4.O (stereo not drawn) [IV AL, 4-(10′ dihyro-artemisinin-oxymethyl) benzoic acid hemihydrate]
Parasite/µL, mean (Plasmodium coatneyi; 0.29 day post-dose): 704,770 Parasite/µL
Parasite Reduction (Plasmodium coatneyi; 0.29 day post-dose, IV AL experiment (mean; IM QN = its control monkey)): 20.4%
Parasite/µL, mean (Plasmodium coatneyi; 1.00 day post-dose): 124,294 Parasite/µL
Parasite Reduction (Plasmodium coatneyi; 1.00 day post-dose, IV AL experiment): 82.2%
Parasite/µL, mean (Plasmodium coatneyi; 1.29 day post-dose): 32,703 Parasite/µL
Parasite Reduction (Plasmodium coatneyi; 1.29 day post-dose, IV AL experiment): 95.2%
Parasite/µL, mean (Plasmodium coatneyi; 2.00 day post-dose): 6,978 Parasite/µL
Parasite Reduction (Plasmodium coatneyi; 2.00 day post-dose, IV AL experiment): 98.9%
Parasite/µL, mean (Plasmodium coatneyi; 2.29 day post-dose): 3,976 Parasite/µL
Parasite Reduction (Plasmodium coatneyi; 2.29 day post-dose, IV AL experiment): 99.4%
Parasite/µL, mean (Plasmodium coatneyi; 3.00 day post-dose): 895 Parasite/µL
Parasite Reduction (Plasmodium coatneyi; 3.00 day post-dose, IV AL experiment): 99.9%
Parasite/µL, mean (Plasmodium coatneyi; 3.29 day post-dose): 377 Parasite/µL
Parasite Reduction (Plasmodium coatneyi; 3.29 day post-dose, IV AL experiment): 99.9%
Parasite/µL, mean (Plasmodium coatneyi; 4.00 day post-dose): 568 Parasite/µL
Parasite Reduction (Plasmodium coatneyi; 4.00 day post-dose, IV AL experiment): 99.9%
Parasite/µL, mean (Plasmodium coatneyi; 4.29 day post-dose): 8,704 Parasite/µL
Parasite Reduction (Plasmodium coatneyi; 4.29 day post-dose, IV AL experiment): 98.5%
Parasite/µL, mean (Plasmodium coatneyi; 5.00 day post-dose): 2,880 Parasite/µL
Parasite Reduction (Plasmodium coatneyi; 5.00 day post-dose, IV AL experiment): 99.5%
Parasite/µL, mean (Plasmodium coatneyi; 5.29 day post-dose): 1,141 Parasite/µL
Parasite Reduction (Plasmodium coatneyi; 5.29 day post-dose, IV AL experiment): 99.8%
Parasite/µL, mean (Plasmodium coatneyi; 6.00 day post-dose): 18,619 Parasite/µL
Parasite Reduction (Plasmodium coatneyi; 6.00 day post-dose, IV AL experiment): 96.8%
Parasite/µL, mean (Plasmodium coatneyi; 6.29 day post-dose): 92,458 Parasite/µL
Parasite Reduction (Plasmodium coatneyi; 6.29 day post-dose, IV AL experiment): 84.4%
Parasite/µL, mean (Plasmodium coatneyi; 7.00 day post-dose): 51,036 Parasite/µL
Parasite Reduction (Plasmodium coatneyi; 7.00 day post-dose, IV AL experiment): 91.4%
PCT of individual animals (Plasmodium coatneyi; IV AL: the only two determinable, IV AS: the two most rapid): 5.3 days and 4.0 days
Recrudescence, median (range, n) (Plasmodium coatneyi; in vivo): 6.5 (6–7, 2) days
R, Day (recrudescence day), mean (Plasmodium coatneyi; n 2 IV AL, n 10 IV AS): 6.50 days
Treatment failure (Plasmodium coatneyi; parasite counts never reached zero): Six animals failed treatment
PC50 (Plasmodium coatneyi; range in evaluable animals (4 of 8 IV AL, 3 of 10 IV AS)): 2.72 to 10.9 h
Antimalarial activity expressed as DHA equi., mean (P. falciparum clone (W2); 0.08 h, healthy rhesus): 5.69 µmol/L
Antimalarial activity expressed as DHA equi., mean (P. falciparum clone (W2); 0.08 h, infected rhesus): 7.58 µmol/L
Antimalarial activity expressed as DHA equi., mean (P. falciparum clone (W2); 0.33 h, healthy rhesus): 4.09 µmol/L
Antimalarial activity expressed as DHA equi., mean (P. falciparum clone (W2); 0.33 h, infected rhesus): 5.32 µmol/L
Antimalarial activity expressed as DHA equi., mean (P. falciparum clone (W2); 0.67 h, healthy rhesus): 2.56 µmol/L
Antimalarial activity expressed as DHA equi., mean (P. falciparum clone (W2); 0.67 h, infected rhesus): 3.58 µmol/L
Antimalarial activity expressed as DHA equi., mean (P. falciparum clone (W2); 1.0 h, healthy rhesus): 1.75 µmol/L
Antimalarial activity expressed as DHA equi., mean (P. falciparum clone (W2); 1.0 h, infected rhesus): 2.58 µmol/L
Antimalarial activity expressed as DHA equi., mean (P. falciparum clone (W2); 3.0 h, healthy rhesus): 0.07 µmol/L
Antimalarial activity expressed as DHA equi., mean (P. falciparum clone (W2); 3.0 h, infected rhesus): 0.19 µmol/L
Antimalarial activity expressed as DHA equi., mean (P. falciparum clone (W2); 6.0 h, healthy rhesus): 0 µmol/L
Antimalarial activity expressed as DHA equi., mean (P. falciparum clone (W2); 6.0 h, infected rhesus): 0 µmol/L
AUC0–20, ePD (P. falciparum clone (W2); [5]): 115 µM·min
AUC0–∞, ePD (P. falciparum clone (W2); [5]): 426 µM·min
Bioactivity %AUC20 (P. falciparum clone (W2); healthy rhesus): 31.7%
Bioactivity Cl (P. falciparum clone (W2); healthy rhesus): 4.75 L hr^-1 kg ^-1
Bioactivity %AUC20 (P. falciparum clone (W2); infected rhesus): 27.7%
Bioactivity Cl (P. falciparum clone (W2); infected rhesus): 3.08 L hr^-1 kg ^-1
Deaths [1]: two deaths in the infected animals within 2.5 h
Deaths ([1]; listed as AL): two died following AL regimen before parasite clearance
Tolerability ([1]; other animals in the experiment): well tolerated by the other animals
toxicity [2]: more toxic than AS
Plasma concentration, mean ([3]; 0.08 h, healthy rhesus, after IV AL 11.8 or AS 8.0 mg/kg): 61.58 µmol/L
Plasma concentration, mean ([3]; 0.08 h, infected rhesus, after IV AL 11.8 or AS 8.0 mg/kg): 62.96 µmol/L
Plasma concentration, mean ([3]; 0.33 h, healthy rhesus): 43.27 µmol/L
Plasma concentration, mean ([3]; 0.33 h, infected rhesus): 46.68 µmol/L
Plasma concentration, mean ([3]; 0.67 h, healthy rhesus): 26.12 µmol/L
Plasma concentration, mean ([3]; 0.67 h, infected rhesus): 26.79 µmol/L
Plasma concentration, mean ([3]; 1.0 h, healthy rhesus): 16.73 µmol/L
Plasma concentration, mean ([3]; 1.0 h, infected rhesus): 21.04 µmol/L
Plasma concentration, mean ([3]; 3.0 h, healthy rhesus): 0.68 µmol/L
Plasma concentration, mean ([3]; 3.0 h, infected rhesus): 1.24 µmol/L
Plasma concentration, mean ([3]; 6.0 h, healthy rhesus): 0 µmol/L
Plasma concentration, mean ([3]; 6.0 h, infected rhesus): 0.05 µmol/L
DHA in plasma after IV AL ([3]; healthy or infected monkeys): no DHA was found in plasma
AUC0–20, parent drug ([3]; infected rhesus): 925 µM·min
AUC0–∞, parent drug ([3]; infected rhesus): 3706 µM·min
Cmax ([3]; mean, P. coatneyi infected rhesus, IV AL/Lys 11.8 or AS/Na 8 mg/kg, analyte = label): 61.5 µM
%AUC20 ([3]; mean, healthy rhesus): 33.4%
AUC 0-20 ([3]; mean, healthy rhesus): 940 µmol·min/L
AUC(0-inf) ([3]; mean, healthy rhesus): 3,039 µmole min L^-1
Cl ([3]; mean, healthy rhesus): 0.45 L hr^-1 kg ^-1
Vz ([3]; mean, healthy rhesus): 0.26 L kg ^-1
t 1/2, z ([3]; mean, healthy rhesus): 25.3 min
Cmax ([3]; mean, healthy rhesus, IV AL/Lys 11.8 or AS/Na 8 mg/kg): 61.6 µM
%AUC20 ([3]; mean, infected rhesus): 31.5%
AUC 0-20 ([3]; mean, infected rhesus): 954 µmol·min/L
AUC(0-inf) ([3]; mean, infected rhesus): 3,392 µmole min L^-1
Cl ([3]; mean, infected rhesus): 0.43 L hr^-1 kg ^-1
Vz ([3]; mean, infected rhesus): 0.28 L kg ^-1
t 1/2, z ([3]; mean, infected rhesus): 29.6 min
Vz, parent ([3]; median, infected rhesus): 0.259 L/kg
% AUC0–20 / AUC0–∞ ([3]; parent drug, infected rhesus): 24.6%
Cmax ([3]; read-out: Cmax, parent drug, infected rhesus): 60.2 µM

C[C@H]1[C@@H](O)O[C@@H]2O[C@@]3(C)CC[C@H]4[C@H](C)CC[C@@H]1[C@@]24OO3 [DHA, dihydroartemisinin]
Time of highest level post-dose ([3]; after IV AS): 5 min
%AUC20 ([3]; mean, healthy rhesus): 23.8%
%AUC20 ([3]; mean, infected rhesus): 27.0%
concentration at 0.08 h ([3]; rhesus monkey, plasma, mean, 0.08 h, healthy rhesus, after IV AL 11.8 or AS 8.0 mg/kg): 7.89 µM
concentration at 0.08 h ([3]; rhesus monkey, plasma, mean, 0.08 h, infected rhesus, after IV AL 11.8 or AS 8.0 mg/kg): 6.74 µM
concentration at 0.33 h ([3]; rhesus monkey, plasma, mean, 0.33 h, healthy rhesus): 6.75 µM
concentration at 0.33 h ([3]; rhesus monkey, plasma, mean, 0.33 h, infected rhesus): 5.92 µM
concentration at 0.67 h ([3]; rhesus monkey, plasma, mean, 0.67 h, healthy rhesus): 4.51 µM
concentration at 0.67 h ([3]; rhesus monkey, plasma, mean, 0.67 h, infected rhesus): 4.21 µM
concentration at 1 h ([3]; rhesus monkey, plasma, mean, 1.0 h, healthy rhesus): 3.52 µM
concentration at 1 h ([3]; rhesus monkey, plasma, mean, 1.0 h, infected rhesus): 2.68 µM
concentration at 3 h ([3]; rhesus monkey, plasma, mean, 3.0 h, healthy rhesus): 310 nM
concentration at 3 h ([3]; rhesus monkey, plasma, mean, 3.0 h, infected rhesus): 160 nM
concentration at 6 h ([3]; rhesus monkey, plasma, mean, 6.0 h, healthy rhesus): 0 nM
concentration at 6 h ([3]; rhesus monkey, plasma, mean, 6.0 h, infected rhesus): 0 nM
AUC(0-t) ([3]; rhesus monkey, plasma, iv, 8 mg/kg, healthy rhesus): 2.17 µM·h
AUC(0-t) ([3]; rhesus monkey, plasma, iv, 8 mg/kg, infected rhesus): 1.87 µM·h
AUC(0-inf) ([3]; rhesus monkey, plasma, iv, 8 mg/kg, AUC(0-inf), mean, healthy rhesus): 9.28 µM·h
AUC(0-inf) ([3]; rhesus monkey, plasma, iv, 8 mg/kg, AUC(0-inf), mean, infected rhesus): 7.45 µM·h
Cmax ([3]; rhesus monkey, plasma, iv, 8 mg/kg, Cmax, mean, P. coatneyi infected rhesus, IV AL/Lys 11.8 or AS/Na 8 mg/kg, analyte = label): 6.85 µM
Cmax ([3]; rhesus monkey, plasma, iv, 8 mg/kg, Cmax, mean, healthy rhesus, IV AL/Lys 11.8 or AS/Na 8 mg/kg, analyte = label): 8.1 µM
half-life ([3]; rhesus monkey, plasma, iv, 8 mg/kg, mean, healthy rhesus): 35.9 min
half-life ([3]; rhesus monkey, plasma, iv, 8 mg/kg, mean, infected rhesus): 30 min

2-hydroxyartelinate [OHAL]
t1/2, metabolite (M) [4]: 42.2 min
